Laboratory results from ChEMBL document CHEMBL1201862, “PubChem BioAssay data set” (2004).
Active and inactive are the calls of the source.

What was measured:
[1] = mouse embryonic fibroblast toxicity – cell-based, plate reader, dry powder, set 2, cytotoxicity control, dose response (AID 652280); assay type: functional; conditions: NIH3T3
[2] = T. cruzi growth inhibition in host cells, dose response, cell-based, plate reader, dry powder, set 2 (AID 652275); assay type: functional
[3] = reduction of Shn3 3'UTR-driven luciferase in osteoblasts – cell-based, Clone20 osteoblasts, firefly luciferase, cherry-picked, dose response (AID 624132); assay type: functional;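 also: firefly luciferase luminescence from reporter carrying the Shn3 3'UTR in osteoblasts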
[4] = loss of viability in HepG2 cells – cell-based, CellTiter-Glo, cherry-picked, cytotoxicity control for Shn3 inhibitor project, dose response (AID 624134); assay type: functional
[5] = non-specific 3'UTR reporter inhibition in Clone20-Shn3RL – cell-based, Renilla luciferase, cherry-picked, counter-screen for Shn3 inhibitor project, dose response (AID 624133); assay type: functional
[6] = Shn3 3'UTR reporter signal decrease – cell-based, Clone20 osteoblasts, firefly luciferase, cherry-pick, set 2, Schnurri-3 inhibitor project, dose response (AID 720490); assay type: functional;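 also: actives lower the luminescence signal as inhibitors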
[7] = CTGF mRNA reduction in DLD1 cells – cell-based, DLD1 colon cancer, RT-qPCR, cherry-pick, dose response (AID 1053122); assay type: functional; conditions: Cancer cell lines
Caspase-6 = Caspase-6 (Homo sapiens, UniProt P55212); experiment: inhibition of CASP6 peptide cleavage – biochemical, VEID-R110 fluorescence, cherry-pick, dose response (AID 720632)
Caspase-7 = Caspase-7 (Homo sapiens, UniProt P55210); experiment: caspase-7 enzyme inhibition, selectivity check – biochemical, DEVD-R110 fluorescence, cherry-pick, selectivity assay for caspase-6 inhibitor project, dose response (AID 743295); assay type: functional
Caspase-7, sequence (P55210 24-198 limits assumed): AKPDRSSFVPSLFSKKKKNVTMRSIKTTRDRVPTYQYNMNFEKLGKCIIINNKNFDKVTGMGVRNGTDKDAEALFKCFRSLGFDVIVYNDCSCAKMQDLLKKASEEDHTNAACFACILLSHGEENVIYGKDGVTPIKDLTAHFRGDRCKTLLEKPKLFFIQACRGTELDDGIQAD
Caspase-7, sequence (P55210 207-303 limits assumed): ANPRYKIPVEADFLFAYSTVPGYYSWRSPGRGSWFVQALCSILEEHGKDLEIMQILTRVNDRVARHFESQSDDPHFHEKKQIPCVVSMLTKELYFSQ

[8] = molecular target: Induced myeloid leukemia cell differentiation protein Mcl-1 (Homo sapiens, UniProt Q07820); assay type: functional
Induced myeloid leukemia cell differentiation protein Mcl-1, sequence (Q07820 whole entry): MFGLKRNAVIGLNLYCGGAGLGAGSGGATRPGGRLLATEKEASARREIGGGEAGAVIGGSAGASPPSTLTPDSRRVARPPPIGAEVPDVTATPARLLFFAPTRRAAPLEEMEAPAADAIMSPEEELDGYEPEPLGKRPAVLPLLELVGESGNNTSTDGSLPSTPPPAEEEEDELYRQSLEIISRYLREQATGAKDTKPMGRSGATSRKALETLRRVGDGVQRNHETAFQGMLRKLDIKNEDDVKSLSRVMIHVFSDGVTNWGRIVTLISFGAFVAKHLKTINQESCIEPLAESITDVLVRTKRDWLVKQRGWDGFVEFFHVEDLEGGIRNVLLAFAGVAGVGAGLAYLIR

ORF 73 = ORF 73 (Human herpesvirus 8, UniProt O40947); experiment: KSHV LANA DNA-binding disruption – biochemical, fluorescence polarization, cherry-picked samples, dose response (AID 504725); parameters: species or system Human gammaherpesvirus 8;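 also: fluorescence polarization of a labeled DNA duplex reporting LANA DNA binding; potency is for inhibitors that block LANA binding to the DNA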
ORF 73, sequence (O40947 whole entry): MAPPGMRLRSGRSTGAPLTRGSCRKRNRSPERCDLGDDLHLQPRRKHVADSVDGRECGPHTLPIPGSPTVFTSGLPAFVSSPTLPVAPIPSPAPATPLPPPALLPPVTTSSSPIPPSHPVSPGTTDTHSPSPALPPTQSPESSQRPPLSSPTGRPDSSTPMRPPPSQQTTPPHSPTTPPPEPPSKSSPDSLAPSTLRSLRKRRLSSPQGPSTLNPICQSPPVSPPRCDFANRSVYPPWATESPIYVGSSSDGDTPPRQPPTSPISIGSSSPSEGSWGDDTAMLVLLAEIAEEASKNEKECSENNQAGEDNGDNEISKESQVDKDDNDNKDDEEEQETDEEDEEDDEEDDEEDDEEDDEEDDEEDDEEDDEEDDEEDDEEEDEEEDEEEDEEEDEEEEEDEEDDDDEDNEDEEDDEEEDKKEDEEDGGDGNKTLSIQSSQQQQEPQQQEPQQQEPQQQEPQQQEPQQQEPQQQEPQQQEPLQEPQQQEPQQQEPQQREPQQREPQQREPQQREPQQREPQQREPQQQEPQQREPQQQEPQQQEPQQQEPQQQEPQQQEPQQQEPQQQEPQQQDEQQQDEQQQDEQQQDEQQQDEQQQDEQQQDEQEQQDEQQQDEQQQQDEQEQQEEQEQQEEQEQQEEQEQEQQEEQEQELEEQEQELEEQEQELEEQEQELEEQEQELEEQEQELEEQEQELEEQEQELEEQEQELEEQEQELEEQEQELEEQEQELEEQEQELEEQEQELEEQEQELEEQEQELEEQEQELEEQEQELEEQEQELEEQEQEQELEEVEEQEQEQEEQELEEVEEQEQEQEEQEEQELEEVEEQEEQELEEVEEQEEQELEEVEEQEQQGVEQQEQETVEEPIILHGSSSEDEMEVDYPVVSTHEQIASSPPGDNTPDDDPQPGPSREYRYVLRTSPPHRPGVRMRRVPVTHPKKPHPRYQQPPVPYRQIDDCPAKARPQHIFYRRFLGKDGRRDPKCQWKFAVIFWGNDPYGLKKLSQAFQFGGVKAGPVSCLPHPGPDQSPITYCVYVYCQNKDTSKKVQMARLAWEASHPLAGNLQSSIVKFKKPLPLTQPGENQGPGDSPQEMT

[9] = molecular target: Intestinal-type alkaline phosphatase (Mus musculus, UniProt P24822); experiment: PubChem AID 488785; assay type: functional
Intestinal-type alkaline phosphatase (Mus musculus, UniProt P24822), sequence (P24822 whole entry): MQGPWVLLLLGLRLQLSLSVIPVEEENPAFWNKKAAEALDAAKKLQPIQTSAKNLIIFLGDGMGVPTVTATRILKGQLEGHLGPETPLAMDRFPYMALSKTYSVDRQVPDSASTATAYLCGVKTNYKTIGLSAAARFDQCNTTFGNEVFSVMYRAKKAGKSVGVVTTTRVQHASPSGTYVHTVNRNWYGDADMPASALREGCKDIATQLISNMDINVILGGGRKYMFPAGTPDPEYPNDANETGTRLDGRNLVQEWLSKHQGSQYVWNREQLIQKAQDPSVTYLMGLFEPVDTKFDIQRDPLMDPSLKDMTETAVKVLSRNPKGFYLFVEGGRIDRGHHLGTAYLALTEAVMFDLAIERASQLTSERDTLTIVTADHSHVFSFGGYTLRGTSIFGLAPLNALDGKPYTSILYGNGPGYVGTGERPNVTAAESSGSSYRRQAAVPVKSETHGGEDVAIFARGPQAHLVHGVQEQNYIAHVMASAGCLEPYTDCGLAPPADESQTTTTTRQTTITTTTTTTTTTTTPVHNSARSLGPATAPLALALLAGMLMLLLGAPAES

[10] = molecular target: T1, Alkaline phosphatase, tissue-nonspecific isozyme (Homo sapiens, UniProt P05186); experiment: TNAP enzyme inhibition by screening hits, dose response, selectivity assay for mouse IAP inhibitor project, biochemical, human TNAP, uHTS hits (AID 488906); assay type: functional
T1 sequence (P05186 whole entry): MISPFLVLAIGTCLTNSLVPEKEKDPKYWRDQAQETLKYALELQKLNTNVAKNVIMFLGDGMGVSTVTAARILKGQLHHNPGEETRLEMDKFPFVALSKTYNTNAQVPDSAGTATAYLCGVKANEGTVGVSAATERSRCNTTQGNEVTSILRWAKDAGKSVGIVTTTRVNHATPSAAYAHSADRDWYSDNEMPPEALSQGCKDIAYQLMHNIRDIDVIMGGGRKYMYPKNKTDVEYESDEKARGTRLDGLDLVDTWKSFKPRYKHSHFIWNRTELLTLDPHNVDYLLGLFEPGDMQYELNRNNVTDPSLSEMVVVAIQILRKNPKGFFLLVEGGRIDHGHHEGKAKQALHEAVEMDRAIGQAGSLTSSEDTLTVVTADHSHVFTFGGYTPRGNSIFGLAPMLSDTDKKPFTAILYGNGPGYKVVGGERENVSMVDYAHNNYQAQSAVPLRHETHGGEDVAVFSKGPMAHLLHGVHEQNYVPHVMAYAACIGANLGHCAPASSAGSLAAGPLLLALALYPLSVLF

[11] = molecular target: Intestinal-type alkaline phosphatase (Homo sapiens, UniProt P09923); experiment: inhibition of human intestinal alkaline phosphatase – biochemical, dose response (AID 488876); assay type: functional
[12] = molecular target: Histone-lysine N-methyltransferase NSD2 (Homo sapiens, UniProt O96028); assay type: biochemical
[13] = molecular target: 1-phosphatidylinositol 4,5-bisphosphate phosphodiesterase gamma-1 (Homo sapiens, UniProt P19174); experiment: Counterscreen for inhibitors of phospholipase C isozymes (PLC-B3): Fluorescence-based biochemical high throughput dose response assay to identify inhibitors of phospholipase C isozymes (PLC-gamma1).
1-phosphatidylinositol 4,5-bisphosphate phosphodiesterase gamma-1, sequence (P19174 whole entry): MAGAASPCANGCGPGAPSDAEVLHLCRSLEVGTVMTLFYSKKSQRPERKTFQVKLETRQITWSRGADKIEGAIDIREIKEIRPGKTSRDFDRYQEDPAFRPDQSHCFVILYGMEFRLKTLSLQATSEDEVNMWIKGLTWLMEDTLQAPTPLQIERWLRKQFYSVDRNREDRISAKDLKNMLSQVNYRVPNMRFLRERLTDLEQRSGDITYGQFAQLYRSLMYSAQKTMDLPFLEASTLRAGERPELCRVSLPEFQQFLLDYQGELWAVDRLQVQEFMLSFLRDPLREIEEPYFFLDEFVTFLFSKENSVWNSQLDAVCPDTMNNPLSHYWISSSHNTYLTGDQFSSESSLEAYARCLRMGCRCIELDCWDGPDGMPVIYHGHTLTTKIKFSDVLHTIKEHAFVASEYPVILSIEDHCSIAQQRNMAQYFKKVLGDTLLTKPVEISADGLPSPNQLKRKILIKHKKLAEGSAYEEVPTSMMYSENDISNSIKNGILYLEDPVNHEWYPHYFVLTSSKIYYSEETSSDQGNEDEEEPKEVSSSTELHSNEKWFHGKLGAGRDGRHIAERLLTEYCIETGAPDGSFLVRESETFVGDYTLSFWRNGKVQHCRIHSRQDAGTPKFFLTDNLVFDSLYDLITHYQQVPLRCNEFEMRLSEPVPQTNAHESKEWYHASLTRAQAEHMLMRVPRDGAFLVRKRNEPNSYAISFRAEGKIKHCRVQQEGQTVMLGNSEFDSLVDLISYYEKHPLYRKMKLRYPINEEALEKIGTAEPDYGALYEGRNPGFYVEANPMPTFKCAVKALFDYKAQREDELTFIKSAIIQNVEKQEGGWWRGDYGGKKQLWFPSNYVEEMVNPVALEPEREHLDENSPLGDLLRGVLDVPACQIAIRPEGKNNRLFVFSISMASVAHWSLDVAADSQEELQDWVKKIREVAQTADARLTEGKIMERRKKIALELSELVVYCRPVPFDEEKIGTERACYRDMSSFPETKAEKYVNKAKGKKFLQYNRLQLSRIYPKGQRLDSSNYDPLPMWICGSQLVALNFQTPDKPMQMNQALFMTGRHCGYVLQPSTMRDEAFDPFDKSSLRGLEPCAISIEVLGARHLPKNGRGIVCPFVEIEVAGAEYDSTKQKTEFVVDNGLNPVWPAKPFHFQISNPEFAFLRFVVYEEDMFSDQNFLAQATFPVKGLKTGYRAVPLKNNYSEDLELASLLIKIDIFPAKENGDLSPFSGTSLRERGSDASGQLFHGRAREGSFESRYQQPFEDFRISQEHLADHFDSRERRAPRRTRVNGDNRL

[14] = molecular target: 1-phosphatidylinositol 4,5-bisphosphate phosphodiesterase beta-3 (Homo sapiens, UniProt Q01970); experiment: Fluorescence-based biochemical high throughput dose response assay to identify inhibitors of phospholipase C isozymes (PLC-B3).
1-phosphatidylinositol 4,5-bisphosphate phosphodiesterase beta-3, sequence (Q01970 whole entry): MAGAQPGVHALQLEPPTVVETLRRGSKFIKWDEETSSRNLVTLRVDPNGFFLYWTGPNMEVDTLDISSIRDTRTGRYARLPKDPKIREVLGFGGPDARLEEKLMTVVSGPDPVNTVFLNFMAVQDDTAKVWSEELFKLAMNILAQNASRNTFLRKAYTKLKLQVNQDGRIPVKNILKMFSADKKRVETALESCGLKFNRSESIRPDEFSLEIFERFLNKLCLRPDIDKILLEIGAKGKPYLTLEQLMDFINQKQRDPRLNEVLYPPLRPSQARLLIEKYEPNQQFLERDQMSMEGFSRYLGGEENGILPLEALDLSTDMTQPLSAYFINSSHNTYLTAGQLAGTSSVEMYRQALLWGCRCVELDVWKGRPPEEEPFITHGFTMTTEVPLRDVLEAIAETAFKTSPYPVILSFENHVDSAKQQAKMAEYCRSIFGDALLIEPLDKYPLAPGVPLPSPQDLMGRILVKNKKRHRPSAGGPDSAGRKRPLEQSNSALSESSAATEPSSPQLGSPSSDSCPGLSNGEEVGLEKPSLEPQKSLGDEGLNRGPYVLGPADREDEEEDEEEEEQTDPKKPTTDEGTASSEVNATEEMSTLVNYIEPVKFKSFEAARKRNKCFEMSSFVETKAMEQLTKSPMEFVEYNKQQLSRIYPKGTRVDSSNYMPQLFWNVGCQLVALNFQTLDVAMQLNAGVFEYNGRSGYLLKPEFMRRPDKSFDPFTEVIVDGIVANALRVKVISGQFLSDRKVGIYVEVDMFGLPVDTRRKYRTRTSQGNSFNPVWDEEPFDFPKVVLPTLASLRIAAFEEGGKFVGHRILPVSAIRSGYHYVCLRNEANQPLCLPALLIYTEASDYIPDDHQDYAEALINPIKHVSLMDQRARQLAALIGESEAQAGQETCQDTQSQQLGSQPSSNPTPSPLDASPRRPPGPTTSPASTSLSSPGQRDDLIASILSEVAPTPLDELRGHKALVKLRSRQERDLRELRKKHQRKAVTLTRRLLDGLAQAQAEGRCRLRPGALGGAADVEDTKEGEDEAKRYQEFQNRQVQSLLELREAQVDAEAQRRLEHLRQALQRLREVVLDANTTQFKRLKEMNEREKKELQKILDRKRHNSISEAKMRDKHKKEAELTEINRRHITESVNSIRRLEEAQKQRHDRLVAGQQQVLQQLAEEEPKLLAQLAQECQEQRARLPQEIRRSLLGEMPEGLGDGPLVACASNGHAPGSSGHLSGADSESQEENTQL

[15] = viability loss in MITF-independent A375 cells – cell-based, CellTiter-Glo luminescence, dry powder, set 2, counter-screen for MITF inhibitor project, dose response (AID 624489); assay type: functional; conditions: A-375;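 also: actives are compounds lowering A375 viability meaning general cytotoxicity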
[16] = liver cell line viability loss – HepG2, luminescence plate reader, powder samples, set 2, cytotoxicity control, dose response (AID 651860); assay type: functional, cell-based
[17] = HEK293T viability loss – cell-based, ATP luminescence, dry powder, Set6, cytotoxicity control, dose response (AID 743142); assay type: functional; conditions: HEK293
[18] = viability loss in A549 lung cancer cells – cell-based, CellTiter-Glo luminescence, dry powder, set 3, cytotoxicity control, dose response (AID 743146); assay type: functional
[19] = molecular target: T2, Replicative DNA helicase DnaB (Mycobacterium tuberculosis, UniProt P9WMR3); experiment: DnaB intein splicing inhibitors, dose response, biochemical, cell-free fluorescence (AID 449749); assay type: functional
T2 sequence (P9WMR3 whole entry): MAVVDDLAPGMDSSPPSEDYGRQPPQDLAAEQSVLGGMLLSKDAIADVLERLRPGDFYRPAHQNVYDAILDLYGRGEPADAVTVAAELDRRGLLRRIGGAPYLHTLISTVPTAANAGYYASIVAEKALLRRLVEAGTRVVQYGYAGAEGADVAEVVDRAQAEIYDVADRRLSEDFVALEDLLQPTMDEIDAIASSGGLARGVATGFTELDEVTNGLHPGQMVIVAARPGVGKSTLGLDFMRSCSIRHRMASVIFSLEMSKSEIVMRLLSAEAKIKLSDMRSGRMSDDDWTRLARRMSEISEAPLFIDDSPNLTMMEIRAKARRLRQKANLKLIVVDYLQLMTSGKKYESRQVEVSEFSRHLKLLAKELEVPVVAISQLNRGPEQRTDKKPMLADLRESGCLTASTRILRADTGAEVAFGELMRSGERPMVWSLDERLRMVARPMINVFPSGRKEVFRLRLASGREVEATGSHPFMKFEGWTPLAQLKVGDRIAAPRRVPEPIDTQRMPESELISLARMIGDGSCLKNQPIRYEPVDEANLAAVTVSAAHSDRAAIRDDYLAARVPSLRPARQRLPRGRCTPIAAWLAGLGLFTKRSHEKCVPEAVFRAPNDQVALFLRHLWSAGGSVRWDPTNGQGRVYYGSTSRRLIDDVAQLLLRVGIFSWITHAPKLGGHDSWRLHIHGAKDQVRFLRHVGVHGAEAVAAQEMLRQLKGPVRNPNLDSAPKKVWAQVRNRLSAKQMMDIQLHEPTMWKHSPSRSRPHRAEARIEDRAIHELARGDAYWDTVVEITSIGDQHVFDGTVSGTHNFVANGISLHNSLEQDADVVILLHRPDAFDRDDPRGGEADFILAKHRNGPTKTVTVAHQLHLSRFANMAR

[20] = molecular target: T3, Apoptotic protease-activating factor 1 (Homo sapiens, UniProt O14727); assay type: functional
T3 sequence (O14727 whole entry): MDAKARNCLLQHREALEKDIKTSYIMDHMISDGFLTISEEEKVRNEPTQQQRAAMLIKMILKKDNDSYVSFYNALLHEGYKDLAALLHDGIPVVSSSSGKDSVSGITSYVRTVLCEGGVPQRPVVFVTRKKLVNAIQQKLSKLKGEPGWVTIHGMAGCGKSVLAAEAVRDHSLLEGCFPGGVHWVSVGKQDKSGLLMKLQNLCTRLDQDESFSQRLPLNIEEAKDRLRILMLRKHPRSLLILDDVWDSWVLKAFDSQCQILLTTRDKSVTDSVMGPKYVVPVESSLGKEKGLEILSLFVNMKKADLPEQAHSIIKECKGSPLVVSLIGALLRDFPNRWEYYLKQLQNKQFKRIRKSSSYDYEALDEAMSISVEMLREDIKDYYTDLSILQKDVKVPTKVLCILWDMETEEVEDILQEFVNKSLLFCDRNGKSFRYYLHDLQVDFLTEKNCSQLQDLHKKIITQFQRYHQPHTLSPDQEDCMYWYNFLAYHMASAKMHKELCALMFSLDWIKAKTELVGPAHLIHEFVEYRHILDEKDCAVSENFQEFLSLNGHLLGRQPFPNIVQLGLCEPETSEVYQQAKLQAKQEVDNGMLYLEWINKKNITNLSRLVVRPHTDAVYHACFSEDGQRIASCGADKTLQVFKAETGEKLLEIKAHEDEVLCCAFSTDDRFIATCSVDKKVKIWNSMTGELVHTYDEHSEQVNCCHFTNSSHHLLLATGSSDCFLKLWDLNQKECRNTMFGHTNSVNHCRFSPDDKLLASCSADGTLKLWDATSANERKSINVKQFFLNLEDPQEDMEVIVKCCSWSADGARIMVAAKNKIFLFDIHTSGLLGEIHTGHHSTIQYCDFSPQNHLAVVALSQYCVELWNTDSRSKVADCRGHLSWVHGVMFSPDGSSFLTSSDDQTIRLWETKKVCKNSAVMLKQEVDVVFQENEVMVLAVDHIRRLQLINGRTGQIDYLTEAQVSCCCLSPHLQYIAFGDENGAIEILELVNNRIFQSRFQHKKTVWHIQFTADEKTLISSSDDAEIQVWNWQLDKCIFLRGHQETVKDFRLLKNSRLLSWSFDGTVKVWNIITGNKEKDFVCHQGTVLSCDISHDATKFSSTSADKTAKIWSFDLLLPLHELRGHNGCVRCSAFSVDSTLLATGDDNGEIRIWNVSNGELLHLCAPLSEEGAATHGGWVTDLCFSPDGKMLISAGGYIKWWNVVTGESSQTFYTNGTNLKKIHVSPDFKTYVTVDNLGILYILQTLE

Protein RecA = molecular target: T4, Protein RecA (Mycobacterium tuberculosis, UniProt P9WHJ3); experiment: Fluorescence Cell-Free Homogeneous Dose Retest to Identify Inhibitors of RecA-Intein Splicing Activity. [Related pubchem assays (depositor defined):AID2097, AID2223, AID489010, AID492950]; assay type: functional
T4 sequence (P9WHJ3 whole entry): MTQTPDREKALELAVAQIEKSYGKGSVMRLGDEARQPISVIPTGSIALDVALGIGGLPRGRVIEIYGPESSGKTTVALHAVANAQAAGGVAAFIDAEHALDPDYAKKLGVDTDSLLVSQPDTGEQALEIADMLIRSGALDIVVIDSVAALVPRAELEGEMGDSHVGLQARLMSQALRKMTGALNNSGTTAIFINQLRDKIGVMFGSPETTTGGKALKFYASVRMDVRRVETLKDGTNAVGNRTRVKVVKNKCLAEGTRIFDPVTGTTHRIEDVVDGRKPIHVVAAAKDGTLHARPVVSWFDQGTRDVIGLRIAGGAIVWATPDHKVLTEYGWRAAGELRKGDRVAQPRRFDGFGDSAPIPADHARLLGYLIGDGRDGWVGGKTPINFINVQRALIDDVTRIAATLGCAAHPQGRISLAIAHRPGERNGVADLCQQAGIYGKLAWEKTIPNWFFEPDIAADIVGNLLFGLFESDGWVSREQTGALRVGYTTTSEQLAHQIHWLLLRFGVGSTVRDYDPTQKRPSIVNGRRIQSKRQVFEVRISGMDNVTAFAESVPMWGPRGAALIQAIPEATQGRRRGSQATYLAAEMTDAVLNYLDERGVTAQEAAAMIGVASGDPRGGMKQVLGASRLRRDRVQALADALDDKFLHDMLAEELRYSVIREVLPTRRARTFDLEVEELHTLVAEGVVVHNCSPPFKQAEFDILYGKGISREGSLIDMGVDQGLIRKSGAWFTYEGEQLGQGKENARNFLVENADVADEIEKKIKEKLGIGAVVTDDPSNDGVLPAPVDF

[21] = molecular target: Tyrosyl-DNA phosphodiesterase 2 (Homo sapiens, UniProt O95551); experiment: potency against TDP2 phosphodiesterase activity – biochemical, epi absorbance, IC50, dose response (AID 743297)

In the case of `CC(C)(O)C#Cc1cccc(-c2nc(C(=O)NCc3ccc4c(c3)OCO4)cc3c2[C@@H](CCO)N([S+]([O-])C(C)(C)C)C3)c1` (stereo not given in full), the AC50 [1] is reported as 12.1 µM (active) and the AC50 [2] is reported as 3.93 µM (active).

In the case of `CCn1c(CNC(=O)c2cc(OC)c(OC)c(OC)c2)cc2cc(C)ccc21`, the AC50 [3] is reported as 2.52 µM (active), the AC50 [4] is reported as > 70 µM (inactive) and the AC50 [5] is reported as 13.4 µM (active). For the same compound, the AC50 [6] was 3.79 µM (active).

With `C[C@@H]1CN([C@H](C)CO)S(=O)(=O)c2ccc(C#Cc3cccc(F)c3)cc2O[C@@H]1CN(C)S(=O)(=O)c1cn(C)cn1` the AC50 [7] was 3.47 µM (active).

For `O=C(O)CCc1ccc(-c2ccc(Br)cc2)n1CC(=O)O`, the AC50 (Caspase-6) was 3.5 µM (active) and the AC50 (Caspase-7) was > 70 µM (inactive).

For `O=C(O)CCCN1C(=O)/C(=C/C=C/c2ccco2)SC1=S`, the IC50 [8] was 19.3 µM (not active), the AC50 (ORF 73) was 175 µM (active) and the IC50 [9] was 1.4 µM (active). The IC50 [10] was 39.1 µM (active), the IC50 [11] was > 100 µM (inactive) and the AC50 [12] was 2.42 µM (active). The IC50 [13] was > 122 µM (inactive) and the IC50 [14] was > 122 µM (inactive).

In the case of `C=CCNC1=C(NCCCN2CCOCC2)C(=O)c2ccccc2C1=O`, the AC50 [15] is reported as > 70 µM (inactive).

In the case of `O=C(O)[C@H]1CCCC[C@H]1C(=O)NC(CN1C(=O)c2ccccc2C1=O)c1ccccc1` (stereo not given in full), the AC50 [16] is reported as > 52 µM (inactive).

In the case of `O=C(CCNC(=O)c1ccc(Cl)cc1)N[C@@H]1CCCc2ccccc21`, the AC50 [17] is reported as 4.12 µM (active) and the AC50 [18] is reported as > 52 µM (inactive).

For `Cc1ccc(C(C[N+](=O)[O-])c2c(C)[nH]n(-c3ccccc3)c2=O)cc1` (stereo not given), the AC50 [19] was 3.52 µM (active), the IC50 [20] was 24.1 µM (active) and the EC50 (Protein RecA) was 3.16 µM (active). The IC50 [21] was 24.2 µM (inactive).
